Here are results for 9 compounds from patent US4731381A, “Method of treating a person for sickle cell anemia” (Merck & Co., Inc., priority 1986, dated 1988).

Structures can show the parent of a compound that is named as a salt.

In one series the target is sickle hemoglobin (HbS) (Homo sapiens, UniProt P68871+P69905, E7V). Put plainly: solubility assay (Csat assay) of sickle hemoglobin. It is filed as biochemical. The note with it: for activation at 3000 µM: 3 mM; for activation at 3000 µM / activation at 5000 µM / activation at 7000 µM / activation at 9000 µM: read-out: % increase in Solubility of HbS; for activation at 7000 µM: 7 mM; for activation at 9000 µM: 9 mM. The source says:
One major assay for evaluating antisickling agents involves measuring their effect on increasing the concentration at which sickle hemoglobin forms a gel. This is called the solubility or Csat assay.
The solubility assay (Csat assay) measures the ability of a compound to increase solubility of sickle hemoglobin (HbS). […] The higher the ratio, the higher the activity of the compound.
In order to confirm the effectiveness of these compounds in reducing the effect of sickle cell anemia, tests were performed. The materials were tested according to the assay (Csat) developed by Hofrichter et al. (J. Hofrichter, P. D. Ross and W. A. Eaton, Proc. Natl. Acad. Sci., U.S.A. 73, 30-35, 1976). This assay involves deoxygenation of concentrated sickle hemoglobin with dithionite in the presence of different concentrations of the drugs being tested. Samples are then sealed in quartz epr tubes under anaerobic conditions and spun at about 150,000 g for about 21/2 hours at about 35° C. in an ultracentrifuge. This procedure pellets the polymerized HbS (sickle hemoglobin) to the bottom of the tubes and the supernatant (soluble HbS) is measured in the laboratory as the cyanmethemoglobulin derivative. […] Activity is reported as a ratio of the HbS solubility with the particular drug to HbS solubility with no drug, i.e. control. The higher the ratio the greater degree of activity of the drug. The numbers in parenthesis are the percent increase in solubility of HbS; again, the higher the number, the greater the activity. The results of representative compounds from the Examples are shown in Table I as typical of the compounds of the invention.

The next series deals with HbS. Briefly: chromatographic separation, covalent binding between HbS and the agent.
Another series has as its system erythrocyte membranes. Put plainly: tests of transport across erythrocyte membranes. It is filed as in vitro ADME.

In the case of `C=C(CCC)C(=O)c1ccc(OCCCC(=O)O)c(Cl)c1Cl` [Example 3, 4-[2,3-dichloro-4-(2-methylenevaleryl)phenoxy]butyric acid], at sickle hemoglobin (HbS), the activation at 3000 µM was 18%, the activation at 7000 µM stood at 46% and the activation at 9000 µM was 51%. The activation at 5000 µM at sickle hemoglobin (HbS) (5 mM) is 37%.

In the case of `C=C(CC)C(=O)c1ccc(OCCC(=O)O)c(Cl)c1Cl` [Example 1, 3-[2,3-dichloro-4-(2-methylenebutyryl)phenoxy]propionic acid], at sickle hemoglobin (HbS), the activation at 3000 µM was determined as 26%, the activation at 7000 µM was determined as 43% and the activation at 9000 µM stood at 69%. The activation at 5000 µM on sickle hemoglobin (HbS) (5 mM) came to 33%.

With `C=C(CC)C(=O)c1ccc(OCCCC(=O)O)c(Cl)c1Cl` [sodium salt of 4-[2,3-dichloro-4-(2-methylenebutyryl)phenoxy]butyric acid], at sickle hemoglobin (HbS) (5 mM, sodium salt), the “solubility ratio (Csat assay) compared with other antisickling agents, in words” value was “higher solubility ratio than other antisickling agents, such as, dichlorobenzyloxyacetic and p-bromobenzyloxyacetic acids”. Further, the “covalent binding between HbS and the therapeutic agent, in words” value in the series with HbS is “tight covalent binding between the HbS and the therapeutic agent had occurred”. Moreover, the “ability to cross the red blood cell membrane, in words” value with erythrocyte membranes is “cross the red blood cell membrane and react with hemoglobin”.

For the compound `C=C(CC)C(=O)c1ccc(OC2(C(=O)O)CCC2)c(Cl)c1Cl` [Example 6, 1-[2,3-dichloro-4-(2-methylenebutyryl)phenoxy]cyclobutane-1-carboxylic acid], on sickle hemoglobin (HbS), the activation at 3000 µM is 19%, the activation at 7000 µM came to 34% and the activation at 9000 µM worked out at 48%. In addition, the activation at 5000 µM on sickle hemoglobin (HbS) (5 mM) worked out at 30%.

For the compound `C=C(CC)C(=O)c1ccc(OCCCCCC(=O)O)c(Cl)c1Cl` [Example 5, 6-[2,3-dichloro-4-(2-methylenebutyryl)phenoxy]hexanoic acid], on sickle hemoglobin (HbS), the activation at 3000 µM worked out at 13%, the activation at 7000 µM was 26% and the activation at 9000 µM stood at 35%. Moreover, the activation at 5000 µM at sickle hemoglobin (HbS) (5 mM) turned out to be 18%.

As to `C=C(CC)C(=O)c1ccc(OCCCCC(=O)O)c(Cl)c1Cl` [Example 4, 5-[2,3-dichloro-4-(2-methylenebutyryl)phenoxy]valeric acid], on sickle hemoglobin (HbS), the activation at 3000 µM came out at 21%, the activation at 7000 µM is 52% and the activation at 9000 µM stood at 80%. Besides, the activation at 5000 µM at sickle hemoglobin (HbS) (5 mM) was 34%.

Turning to `C=C(CC)C(=O)c1ccc(OC(C)(C)C(=O)O)c(Cl)c1Cl` [Example 8, 2-[2,3-dichloro-4-(2-methylenebutyryl)phenoxy]-2-methylpropionic acid], at sickle hemoglobin (HbS), the activation at 3000 µM is 11%, the activation at 7000 µM amounted to 41% and the activation at 9000 µM turned out to be 53%. Further, the activation at 5000 µM on sickle hemoglobin (HbS) (5 mM) stood at 21%.

As for `C=C(CCC)C(=O)c1ccc(OC2(C(=O)O)CCC2)c(Cl)c1Cl` [Example 7, 1-[2,3-dichloro-4-(2-methylenevaleryl)phenoxy]cyclobutane-1-carboxylic acid], on sickle hemoglobin (HbS), the activation at 3000 µM came out at 14%, the activation at 7000 µM worked out at 26% and the activation at 9000 µM is 39%. Moreover, the activation at 5000 µM on sickle hemoglobin (HbS) (5 mM) stood at 30%.

Turning to `C=C(CC)C(=O)c1ccc(OCCCC(=O)O)c(Cl)c1Cl` [Example 2, 4-[2,3-dichloro-4-(2-methylenebutyryl)phenoxy]butyric acid], at sickle hemoglobin (HbS), the activation at 3000 µM was found to be 22%, the activation at 7000 µM worked out at 37% and the activation at 9000 µM is 46%. For the same compound, on sickle hemoglobin (HbS) (5 mM), the activation at 5000 µM turned out to be 27%.
